Here are results for two compounds from patent US11013748B2, “Budesonide prodrug” (University of Nizwa, priority 2019, dated 2021).

In brackets after ≈: the same amount, converted by molar mass.

The nature of data set [1]: Partition coefficient, Hansch method (n-octanol/buffer). It is filed as physicochemical. As for the experimental part:
The Hansch method was used to determine the partition coefficient between the n-octanol and phosphate buffer (both 10 mL) system. Different pH systems of 1.2, 4.0, 6.8, and 7.4, and n-octanol and double distilled water (both 10 mL, pH 5.8) were prepared. The buffers, n-octanol, and double distilled water were added to a separating funnel. The phases were shaken for 60 minutes. to attain saturation. Ten milligrams of Bu and BuP were added to respective separators and were given 30 minutes of shaking for the drug to achieve sufficient distribution in both the phases. The separators were kept still for 5 minutes, and then the phases were separated. The phases were suitably diluted and analyzed (n=6) using the fiber optics with the UV detector set at 232 nm and 340 nm for Bu and BuP, respectively.

Data set [2] in a line: Solubility studies of Bu and BuP in buffer media. It is filed as physicochemical. Conditions: thermodynamic from solid. As for the experimental part: Solubility studies of the pure Bu and prepared BuP were determined (n=6) by making saturated solutions of HCl buffer, phthalate buffer, phosphate buffer of pH 1.2, 4.0, 6.8 (with and without 10% w/v rat fecal content), and 7.4 respectively. The solutions, kept separately in a conical flask, were subjected to ultrasonic waves in an ultrasonic bath (Sonorex, Bandelin Electronic, Germany) for 30 minutes. Fiber optic probes were inserted at 0 and 30 minutes, and readings taken at 232 nm for Bu and 340 nm for BuP using the fiber optics system

For another data set, the system named is colitis in rats. Conditions: literature; cited from earlier work.

As to `CCCC1O[C@@H]2C[C@H]3[C@@H]4CCC5=CC(=O)C=C[C@]5(C)[C@H]4[C@@H](O)C[C@]3(C)[C@]2(C(=O)CO)O1` (stereo partly drawn) [Bu, budesonide], the logP (in general, a log measure of how a compound divides between an organic and an aqueous phase) worked out at 3.12 ± 0.12 in data set [1] (n-octanol / HCl buffer, pH 1.2); 2.87 ± 1.05 in data set [1] (n-octanol / double distilled water, pH 5.8); 2.51 ± 0.36 in data set [1] (n-octanol / phosphate buffer, pH 6.8); 2.13 ± 1.09 in data set [1] (n-octanol / phosphate buffer, pH 7.4); 3.01 ± 0.54 in data set [1] (n-octanol / phthalate buffer, pH 4.0). Moreover, the solubility (in general, the concentration that dissolves in the medium under given conditions) at 0 min in data set [2] (aqueous buffer, Phosphate buffer, pH 6.8) is 187 ± 1.98 µg/mL (≈ 435 µM); in data set [2] (aqueous buffer, Phosphate buffer, pH 7.4), 231 ± 2.12 µg/mL (≈ 537 µM); in data set [2] (aqueous buffer, Phthalate buffer, pH 4.0), 68.2 ± 0.98 µg/mL (≈ 158 µM); in data set [2] (phosphate buffer with 10% w/v rat fecal content, plasma or biological fluid, Phosphate buffer, pH 6.8 + rat fecal content) it was 187.1 ± 0.89 µg/mL; in data set [2] (simulated gastric fluid, HCl buffer, pH 1.2) it was 25.1 ± 1.43 µg/mL (≈ 58.3 µM); in data set [2] (Double distilled water, pH 5.8), 121 ± 1.26 µg/mL (≈ 281 µM). Also, the solubility at 30 min in data set [2] (aqueous buffer, Phosphate buffer, pH 6.8, 30 min) was 356.9 ± 0.99 µg/mL (≈ 829 µM); in data set [2] (aqueous buffer, Phosphate buffer, pH 7.4, 30 min), 476.1 ± 1.99 µg/mL (≈ 1110 µM); in data set [2] (aqueous buffer, Phthalate buffer, pH 4.0, 30 min) it was 148 ± 1.32 µg/mL (≈ 344 µM); in data set [2] (phosphate buffer with 10% w/v rat fecal content, plasma or biological fluid, Phosphate buffer, pH 6.8 + rat fecal content, 30 min), 356.9 ± 1.76 µg/mL; in data set [2] (simulated gastric fluid, HCl buffer, pH 1.2, 30 min ultrasonic bath), 88.12 ± 0.67 µg/mL (≈ 205 µM); in data set [2] (Double distilled water, pH 5.8, 30 min) it was 209 ± 2.13 µg/mL (≈ 486 µM).

As to `CCCC1OC2CC3C4CCC5=CC(=O)C=CC5(C)C4C(O)CC3(C)C2(C(=O)COC2OC(C(=O)O)C(O)C(O)C2O)O1` [budesonide-beta-D-glucuronide], the “effect on colitis in rats” value in the data set with colitis in rats was “accelerate the treatment of colitis in rats”.
